Results: US6838237B2, “Antigenically reactive regions of the hepatitis a virus polyprotein” (The United States of America as represented by the …, priority 1996, dated 2005)
“And” between values parts separate entries of the source, which are not always exact repeats. Equal entries are not always repeated.

Key:
[1] = tested on: anti-HAV-negative sera; test: EIA for anti-HAV: synthetic peptides reacted with anti-HAV-negative sera; type: binding, human; conditions: experiment 1: sera 1:100, cutoff P/N 3.0
Text: (§1) All anti-HAV-positive and anti-HAV-negative sera were randomly selected from a collection reposited at the Centers for Disease Control and Prevention, Atlanta, Ga. Serum specimens were collected from anti-HAV-positive patients with acute liver disease. Anti-HAV-negative serum specimens were collected from normal blood donors. All sera were initially tested by commercially available kit for the presence of anti-HAV activity (HAVAB and HAVAB-M, Abbott Laboratories, Abbott Park, Ill.)
(§2) Synthetic peptides (110 ml) at a concentration of 10 mg/ml in 0.1 M phosphate-buffered saline (PBS), pH 7.5, were adsorbed to microtiter wells (Immulon II, Dynatech Laboratories, Inc.) at room temperature for 12 h. Sera were diluted in PBS containing 0.1% Tween 20 and 10% normal goat serum (PBS-T) and 100 ml were added to each well, incubated for 60 min at 37E C, and washed with PBS containing Tween-20. […] Two different cutoffs were established for experiments 1 and 2. In experiment 1, the cutoff, expressed as a P/N ratio and equal to 3.0, was statistically established as the mean of negative controls plus at least 3.5 standard deviations (SD) above the mean, where P represents the optical density value at 493 nm (OD493) of anti-HAV-positive specimens and N represents the optical density value of negative controls. In experiment 2, a different cutoff was used to ensure statistical reliability and accurate interpretation of positive results. In this case, in addition to anti-HAV-negative sera, two irrelevant synthetic peptides were used as supplemental negative controls to determine the degree of nonspecific binding of anti-HAV sera to synthetic peptides. One cutoff, expressed as a P/N ratio and equal to 3.0, corresponded to the mean of negative serum controls plus at least 3.5 SD above the mean. A second cutoff was also expressed as a P/N ratio, where P represents the optical density value at 493 nm (OD493) for HAV peptides immunoreacting with anti-HAV-positive specimens and N represents the optical density value obtained with the irrelevant peptides. The second cutoff was equal 2.0 and corresponded to the mean of OD values obtained with the irrelevant peptides plus at least 3.5 SD above the mean. Synthetic peptides were considered immunoreactive with anti-HAV serum specimens only when both cutoffs were satisfied.

[2] = tested on: anti-HAV-positive sera; test: EIA for anti-HAV: synthetic peptides adsorbed to wells, reacted with anti-HAV-positive acute sera; type: binding, human; conditions: for Reactivity with acute sera (reactive/tested): experiment 1: sera 1:100, anti-human IgG-HRP, cutoff P/N 3.0; for Reactivity with acute sera (percent of sera reactive): experiment 1: sera 1:100, cutoff P/N 3.0; for P/N for acute sera (mean) / P/N for acute sera (range, in parentheses): OD493 positive/negative ratio of reactive sera
Text: as §1, §2

Sequence	Reactivity with negative sera (reactive/tested) [1]	Reactivity with acute sera (reactive/tested) [2]	Reactivity with acute sera (percent of sera reactive) [2] [%]	P/N for acute sera (mean) ([2]; experiment 1)	P/N for acute sera (range, in parentheses) ([2]; experiment 1)	P/N for acute sera (individual values) ([2]; experiment 1, single sera listed with semicolon)	immunoreactivity with anti-HAV-positive sera (in words) [2]	percent of (IgM) anti-HAV-positive sera immunoreactive with peptide [2]
SVTEQSEFYFPRAPLNSNAM [YK-1308]	0/51	1/48	2.1	3.32				
HFLCTFTFNSNNKEYTFPIT [YK-1279]	1/46	7/41	17.1	3.43	(3.11-3.67)			
EPLRTSVDKPGSKKTQGEKF [YK-1211]	0/48	21/46	45.7	9.33	(3.37-27.92)			
CPKDELRPLEKVLESKTRAI [YK-1411]	0/27	8/41	19.5	8.18	(4.65-17.65)			
LDENGLLLGVHPRLAQRILF [YK-1407]	0/27	2/41	4.9			3.43 and 3.98		
KNDGTTVDLTVDQAWRGKGE [YK-1389]	0/27	3/41	7.3	10.33	(5.53-18.26)			
MEEKATYVHKKNDGTTVDLT [YK-1388]	0/27	4/41	9.8	4.29	(3.99-4.7)			
KTMIRFGDVGLDLDFSAFDA [YK-1418]	1/27	6/41	14.6	4.5	(3.35-6.21)			
QRLKYAQEELSNEVLPPPRKMKGLF [YK-1665]							greater immunoreactivity than Peptide No. YK-1317	
QNVPDPQVGITTMKDLKGKA [YK-1266]	0/48	14/46	30.4	8.25	(3.27-18.30)			
SQGISDDDNDSAVAEFFQSF [YK-1368]	1/27	26/41	63.4	9.58	(4.27-19.82)			
VIQQLNQDEHSHIIGLLRVM [YK-1334]	2/51	5/48	10.4	4.27	(3.16-5.27)		marginally immunoreactive	
LAKTNDAIKDMSCVDLIMDG [YK-1364]	1/41	4/41	9.8	4.9	(3.5-6.18)			
DRTAVTGASYFTSVDQSSVH [YK-1208]	0/46	5/41	12.2	4.29	(3.27-5.54)			
NILKDNQQKIEKAIEEADEF [YK-1341]	1/51	3/48	6.3	5.23	(3.44-8.26)			
PQLKPVSELTFLKRSFNLVE [YK-1431]	1/27	4/41	9.8	14.13	(3.17-27.53)			
FNASDSVGQQIKVIPVDPYF [YK-1242]	0/46	1/41	2.4	3.1			Very weakly reactive	
KNPHNDMLNVNLAKTNDAIK [YK-1363]	0/41	5/41	12.2	5.96	(5.31-6.33)			
GQKIVDEFKKLGMTATSADK [YK-1428]	0/27	1/41	2.4	7.28				
GLDHILSLADIEEEQMIQSV [YK-1206]	0/46	8/42	19.1	9.46	(3.01-27.07)			
SKTRAIDACPLDYSILCRMY [YK-1412]	2/27	10/41	24.4	6.04	(3.4-15.15)			
FPELKPGESRHTSDHMSIYK [YK-1274]	1/48	9/46	19.6	5.31	(3.0-8.47)			
DLDFSAFDASLSPFMIREAG [YK-1419]	1/27	5/41	12.2	5.27	(3.98-8.49)			
VDDPRSEEDKRFESHIECRK [YK-1314]	1/51	26/48	54.2	14.68	(3.53-89.96)		broad and strong antigenic reactivity	
KVNFPHGMLDLEEIAANSKD [YK-1327]	1/51	15/48	31.3	6.16	(3.28-9.76)			
WLNPKKINLADRMLGLSGVQEIKEQ [YK-1757]							very strong antigenically reactive	
SAVAEFFQSFPSGEPSNSKLSGFFQ [YK-1832]								about 86.0%
